Data as given in patent US10688113B2 (priority 2015, dated 2020).

Legend:
[1] = test system: capsaicin-induced ocular pain; conditions: rabbits, 1 to 28 mM administered 15 minutes before application of capsaicin; cited from earlier work
[2] = test system: LPS-induced bacterial keratitis; experiment: LPS-induced inflammation model (corneal scratch, LPS 50 μg) followed by capsaicin instillation; assay type: in vivo; conditions: mice, LPS 50 μg days 1 and 4, 10 mM twice-daily for 5 days, capsaicin 100 μM on day 5, vs PBS
Experimental: Bacterial lipopolysaccharide (LPS, endotoxin) is a potent stimulator of inflammatory responses and contributes to microbial keratitis and to corneal ulcers (Khatri et al. 2002 Invest. Ophthal. Vis. Sci., 43 2278-2284).
Effect of compound 2 in a model of LPS-induced inflammation (50 μg). A corneal epithelial injury (scratch) is made with a trephine (1.5 mm diameter) in mice, followed by topical treatment with LPS (50 μg, two administrations on days 1 and 4) then twice-daily chronic treatment for 5 days with 1×PBS (control group) or with compound 2 (10 mM) (n=6 animals per group), followed by capsaicin instillation (100 μM) on day 5. The results obtained are presented in FIG. 8 (y-axis: palpebral closure time in seconds). The histogram on the left represents the response of mice treated with PBS, while the histogram on the right represents the response of mice treated with compound 2.

[3] = test system: capsaicin-induced ocular pain (100 μM); experiment: Capsaicin test (100 μM) after chronic twice-daily treatment on trephine-injured cornea; assay type: in vivo, male C57BL/6 mice; conditions: mice, trephine corneal injury, 10 mM topical twice-daily for 4 days, capsaicin 100 μM 15 min after last instillation; vs PBS
Experimental: The compounds of formula I of the present invention were also tested, in 8-week-old male C57BL/6 mice (JANVIER LABS), using a capsaicin test (100 μM) after twice-daily treatment for 5 days of the compound of formula I on cornea injured beforehand (with a 1.5 mm diameter trephine).
Analgesic effect of compound 2 in the model of capsaicin-induced ocular pain (100 μM). A corneal epithelial injury was made on the right cornea of male C57BL/6 mice (JANVIER LABS) using a 1.5 mm diameter trephine. Once the animals were operated on, a twice-daily topical treatment, for 4 days, is carried out with 1×PBS (5 animals per group) or with 10 mM compound 2 (5 animals per group). On day 4, 15 minutes after the last instillation, 100 μM capsaicin is instilled and the behavioural analysis is performed. The results obtained corresponding to the trephine injury alone before capsaicin are shown in FIG. 5 (y-axis: palpebral closure time in seconds).
During this test, de-epithelialization of the corneal epithelium of the left eye of the mouse is carried out using a 1.5 mm diameter trephine. This surgery is carried out under a surgical microscope. This procedure lasts at most 3 minutes per animal. The depth and surface area of corneal de-epithelialization are standardized and then evaluated by a slit-lamp examination. The advantage of this surgical tool is standardization of the injury. […]

[4] = test system: mechanical allodynia induced by 0.2% BAC; experiment: Keratitis induced by chronic instillation of 0.2% benzalkonium chloride (BAC), Von Frey filaments; assay type: in vivo, male C57BL/6 mice; conditions: mice, 0.2% BAC for 6 days then 10 mM twice-daily for 5 days; vs 1×PBS
Text: Chronic instillation of 0.2% benzalkonium chloride induces chronic inflammation of the cornea with generation of ocular pain (Launay et al. (2016) Neurobiol. Dis., 88 16-28). This model was used as a model of chemical keratitis.
Study of corneal sensitivity in mice treated twice-daily with compound 2 for 5 days first treated with 0.2% BAC for 6 days. The corneal mechanical sensitivity of male C57BL/6 mice, treated with 0.2% BAC for 6 days, then twice-daily with compound 2 for 5 days, was evaluated at various times using Von Frey filaments, compared with a control group receiving twice-daily 1×PBS (n=10 animals per group). The use of Von Frey filaments (applied to the centre of the cornea of a conscious animal) is perfectly feasible for measuring corneal mechanical allodynia in mice. In the context of dry eye, the technique produces mechanical allodynia in the patient: the simple fact of closing the eyelid induces a painful sensation. Lastly, this behavioural test is most like the one used in human clinical practice (Cochet-Bonnet) to measure corneal mechanical sensitivity.
The results obtained are presented in FIG. 7 (y-axis: weight of the Von Frey filament in grams). The histogram on the left represents the response of mice treated with PBS, while the histogram on the right represents the response of mice treated with compound 2.

[5] = test system: corneal mechanical sensitivity (allodynia); experiment: Corneal mechanical sensitivity (allodynia), Von Frey filaments, trephine-injured cornea plus capsaicin; assay type: in vivo, male C57BL/6 mice; conditions: mice, 10 mM topical twice-daily for 5 days, capsaicin 100 μM, vs 1×PBS
Experimental: During this test, de-epithelialization of the corneal epithelium of the left eye of the mouse is carried out using a 1.5 mm diameter trephine. This surgery is carried out under a surgical microscope. This procedure lasts at most 3 minutes per animal. The depth and surface area of corneal de-epithelialization are standardized and then evaluated by a slit-lamp examination. The advantage of this surgical tool is standardization of the injury. The 8-week-old male C57BL/6 mice thus treated receive a twice-daily treatment for 5 days of the compound of formula I or PBS before the application of capsaicin.
Additional pain is induced by capsaicin (100 μM). Corneal mechanical sensitivity (allodynia) was measured using Von Frey filaments, 5 days after treatment, on mice treated with compound 1 (10 mM), with compound 2 (10 mM) or, for the control group, with 1×PBS (n=5 animals per group). The results obtained are presented in FIG. 6 (y-axis: weight of the Von Frey filament in grams). The histogram on the left (black) represents the response of mice treated with PBS, the histogram in the middle represents the response of mice treated with compound 1 and the histogram on the right represents the response of mice treated with compound 2.

[6] = test system: capsaicin-induced ocular pain (33 mM); experiment: Capsaicin-induced ocular pain, acute treatment (single instillation 15 min before capsaicin); assay type: in vivo, New Zealand white rabbits; conditions: rabbit, single instillation of 10 mM, 15 min before capsaicin 33 mM; compared with capsazepine 5 mM
Experimental: In order to study the pharmacological activity of the present invention in the case of ocular pain, the compounds of formula (I) were tested using the model of capsaicin-induced ocular pain. In this model, previously used in the literature (Gonzalez et al. (1993) Invest. Ophthalmol. Vis. Sci., 34(12), 3329-3335), in adult rabbits, the number of lid-squeezing movements, the degree of palpebral opening, miotic response and conjunctival vasodilation evoked by a bilateral instillation of 30 μL of capsaicin (33 mM) were measured at different times after administration of the drug. To that end, the responses to this test in eyes pre-treated with various calcium antagonists (diltiazem, verapamil or nifedipine) were compared with those that had received only vehicle.
The procedure and the timing were as follows:
Evaluation of corneal pain by observing conjunctival hyperaemia after pain induction (a single instillation of 1% capsaicin (33 mM) in the right eye) in albino rabbits. Pre-treatment with the compound to be tested, 15 min before capsaicin instillation.

[7] = test system: capsaicin-induced blinking; conditions: cited from earlier work
[8] = test system: contractile responses to capsaicin; conditions: morphine 5×100 μM; cited from earlier work

COc1ccc([C@@H]2Sc3ccccc3N(CCN(C)C)C(=O)[C@@H]2OC(C)=O)cc1 [diltiazem]
capsaicin-induced scratching movements, conjunctival hyperaemia, eye closure and elevated aqueous protein concentration [1]: significantly decreased

CC(OC(=O)N[C@@H](C)P(=O)([O-])C[C@@H](Cc1ccc(-c2ccccc2)cc1)C(=O)N[C@@H](C)C(=O)[O-])OC(=O)C(C)C.[Na+].[Na+] (stereo partly shown) [compound 2]
analgesic effect (cumulative palpebral closure time) in LPS-induced keratitis [2]: very significant analgesic effect (shorter cumulative palpebral closure time) | analgesic effect (cumulative palpebral closure time) in the capsaicin test [3]: very significant analgesic effect (shorter cumulative palpebral closure time) | mechanical allodynia induced by 0.2% BAC (Von Frey filaments) [4]: significantly reduced (higher sensitivity threshold) | mechanical sensitivity measured with Von Frey filaments [5]: significant decrease | analgesic effect on conjunctival hyperaemia following pain induction by capsaicin [6]: superior to the reference product, capsazepine | analgesic effect on palpebral opening following pain induction by capsaicin [6]: superior to the reference product, capsazepine

CN1CC[C@]23c4c5ccc(O)c4O[C@H]2[C@@H](O)C=C[C@H]3[C@H]1C5 [morphine]
blinking, healthy non-inflamed rat cornea ([7]; applied to healthy, non-inflamed rat cornea): no effect on blinking | capsaicin-induced blinking ([7]; rats, topical application of a drop, 5 μM): attenuates capsaicin-induced blinking in a concentration-dependent manner | contractile responses to capsaicin [8]: partially inhibited

C[C@H](NC(=O)[C@H](Cc1ccc(-c2ccccc2)cc1)CP(=O)([O-])[C@H](C)N)C(=O)[O-].[Na+].[Na+] [compound 1]
mechanical sensitivity measured with Von Frey filaments [5]: significant decrease | analgesic effect on conjunctival hyperaemia following pain induction by capsaicin [6]: superior to the reference product, capsazepine | analgesic effect on palpebral opening following pain induction by capsaicin [6]: superior to the reference product, capsazepine
